# Experimental data: patent US10870647B2, “Imidazopyridine derivative, method for preparing same, and pharmaceutical composition containing same as active ingredient for preventing or treating cancer” (DAEGU-GYEONGBUK MEDICAL INNOVATION FOUNDATION, priority 2016, dated 2020)
# Read-outs that look alike come from different tables or passages of the source.
# How the values were obtained:
# Test in all cases: Kinase selectivity, scanMAX Kinase assay panel (DiscoverX), % control at 1 uM
# Format in all cases: binding
# [1] = biological target: T1, scanMAX Kinase assay panel (Homo sapiens, UniProt O95382); details: ASK2; 1 uM; read-out: Percent Control (%)
# T1 construct: purchased DiscoverX
# T1 sequence (O95382 1-1288): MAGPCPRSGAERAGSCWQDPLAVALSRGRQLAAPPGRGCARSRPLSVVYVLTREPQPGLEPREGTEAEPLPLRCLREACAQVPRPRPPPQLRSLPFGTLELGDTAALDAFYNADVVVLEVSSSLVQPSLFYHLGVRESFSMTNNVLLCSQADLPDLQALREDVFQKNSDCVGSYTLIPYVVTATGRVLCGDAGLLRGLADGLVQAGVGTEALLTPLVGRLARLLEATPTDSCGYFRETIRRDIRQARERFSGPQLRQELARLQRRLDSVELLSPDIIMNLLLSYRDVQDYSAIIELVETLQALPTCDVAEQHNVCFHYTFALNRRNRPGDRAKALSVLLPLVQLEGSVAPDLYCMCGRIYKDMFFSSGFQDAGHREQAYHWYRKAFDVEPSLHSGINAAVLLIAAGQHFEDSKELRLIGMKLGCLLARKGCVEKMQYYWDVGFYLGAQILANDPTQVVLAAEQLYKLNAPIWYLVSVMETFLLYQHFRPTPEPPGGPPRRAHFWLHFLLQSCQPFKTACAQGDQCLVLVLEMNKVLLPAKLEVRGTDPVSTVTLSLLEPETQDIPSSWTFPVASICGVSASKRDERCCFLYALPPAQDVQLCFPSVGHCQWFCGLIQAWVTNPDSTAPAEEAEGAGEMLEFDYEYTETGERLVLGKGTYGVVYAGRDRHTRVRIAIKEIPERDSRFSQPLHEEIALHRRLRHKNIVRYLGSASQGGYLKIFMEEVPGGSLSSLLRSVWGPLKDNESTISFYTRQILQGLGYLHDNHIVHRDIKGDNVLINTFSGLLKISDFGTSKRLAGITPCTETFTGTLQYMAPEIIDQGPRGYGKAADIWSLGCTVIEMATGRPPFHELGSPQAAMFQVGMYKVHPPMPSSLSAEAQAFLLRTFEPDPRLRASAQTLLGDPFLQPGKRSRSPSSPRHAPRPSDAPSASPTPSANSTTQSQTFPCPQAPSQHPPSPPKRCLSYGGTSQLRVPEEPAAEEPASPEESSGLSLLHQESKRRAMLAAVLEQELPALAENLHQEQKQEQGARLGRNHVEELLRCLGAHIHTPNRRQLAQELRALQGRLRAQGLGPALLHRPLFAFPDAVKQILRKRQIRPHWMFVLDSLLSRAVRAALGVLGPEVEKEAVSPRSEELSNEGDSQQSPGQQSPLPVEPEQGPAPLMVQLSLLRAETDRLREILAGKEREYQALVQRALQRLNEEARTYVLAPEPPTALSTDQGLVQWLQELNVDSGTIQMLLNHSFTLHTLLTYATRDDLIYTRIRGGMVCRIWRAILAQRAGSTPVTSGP
# Method in brief: (§1)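 Read-out is percent of control, derived from the signal with compound relative to positive and negative controls: (compound − positive)/(negative − positive) × 100. Each enzyme received test drug at 1 uM in DMSO, and values under 35% count as active.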
# [2] = biological target: T2, scanMAX Kinase assay panel (Homo sapiens, UniProt Q9HCP0); details: CSNK1G1; 1 uM; read-out: Percent Control (%)
# T2 construct: purchased DiscoverX
# T2 sequence (Q9HCP0 whole entry): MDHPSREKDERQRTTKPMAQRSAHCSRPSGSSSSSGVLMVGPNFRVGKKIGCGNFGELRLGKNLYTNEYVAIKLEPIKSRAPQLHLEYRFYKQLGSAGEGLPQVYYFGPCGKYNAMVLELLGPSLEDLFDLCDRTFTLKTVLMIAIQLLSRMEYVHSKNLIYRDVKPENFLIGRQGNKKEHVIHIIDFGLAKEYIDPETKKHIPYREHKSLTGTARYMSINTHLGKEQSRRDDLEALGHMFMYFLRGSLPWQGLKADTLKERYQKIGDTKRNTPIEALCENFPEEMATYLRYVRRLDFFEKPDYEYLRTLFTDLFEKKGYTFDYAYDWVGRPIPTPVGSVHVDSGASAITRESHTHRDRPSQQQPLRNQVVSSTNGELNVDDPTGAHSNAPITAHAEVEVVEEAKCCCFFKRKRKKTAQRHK
# Method in brief: as §1
# [3] = biological target: T3, scanMAX Kinase assay panel (Homo sapiens, UniProt Q15831); details: LKB1; 1 uM; read-out: Percent Control (%)
# T3 construct: purchased DiscoverX
# T3 sequence (Q15831 1-433): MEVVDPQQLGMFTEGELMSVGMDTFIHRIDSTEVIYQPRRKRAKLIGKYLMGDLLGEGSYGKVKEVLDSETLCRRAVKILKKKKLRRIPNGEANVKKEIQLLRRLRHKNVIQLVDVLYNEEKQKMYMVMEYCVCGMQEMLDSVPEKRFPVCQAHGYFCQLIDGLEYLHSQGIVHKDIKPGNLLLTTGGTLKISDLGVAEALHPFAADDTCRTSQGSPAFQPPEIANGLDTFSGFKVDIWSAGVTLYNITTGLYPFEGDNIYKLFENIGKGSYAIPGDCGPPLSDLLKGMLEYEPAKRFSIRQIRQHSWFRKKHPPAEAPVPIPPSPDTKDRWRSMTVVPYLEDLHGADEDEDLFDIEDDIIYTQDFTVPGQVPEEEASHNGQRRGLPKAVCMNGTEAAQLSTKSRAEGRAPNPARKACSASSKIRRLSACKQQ
# Method in brief: as §1
# [4] = biological target: T4, scanMAX Kinase assay panel (Homo sapiens, UniProt P23458); details: 1 uM, read-out: Percent Control (%)
# T4 construct: purchased DiscoverX
# T4 sequence (P23458 whole entry): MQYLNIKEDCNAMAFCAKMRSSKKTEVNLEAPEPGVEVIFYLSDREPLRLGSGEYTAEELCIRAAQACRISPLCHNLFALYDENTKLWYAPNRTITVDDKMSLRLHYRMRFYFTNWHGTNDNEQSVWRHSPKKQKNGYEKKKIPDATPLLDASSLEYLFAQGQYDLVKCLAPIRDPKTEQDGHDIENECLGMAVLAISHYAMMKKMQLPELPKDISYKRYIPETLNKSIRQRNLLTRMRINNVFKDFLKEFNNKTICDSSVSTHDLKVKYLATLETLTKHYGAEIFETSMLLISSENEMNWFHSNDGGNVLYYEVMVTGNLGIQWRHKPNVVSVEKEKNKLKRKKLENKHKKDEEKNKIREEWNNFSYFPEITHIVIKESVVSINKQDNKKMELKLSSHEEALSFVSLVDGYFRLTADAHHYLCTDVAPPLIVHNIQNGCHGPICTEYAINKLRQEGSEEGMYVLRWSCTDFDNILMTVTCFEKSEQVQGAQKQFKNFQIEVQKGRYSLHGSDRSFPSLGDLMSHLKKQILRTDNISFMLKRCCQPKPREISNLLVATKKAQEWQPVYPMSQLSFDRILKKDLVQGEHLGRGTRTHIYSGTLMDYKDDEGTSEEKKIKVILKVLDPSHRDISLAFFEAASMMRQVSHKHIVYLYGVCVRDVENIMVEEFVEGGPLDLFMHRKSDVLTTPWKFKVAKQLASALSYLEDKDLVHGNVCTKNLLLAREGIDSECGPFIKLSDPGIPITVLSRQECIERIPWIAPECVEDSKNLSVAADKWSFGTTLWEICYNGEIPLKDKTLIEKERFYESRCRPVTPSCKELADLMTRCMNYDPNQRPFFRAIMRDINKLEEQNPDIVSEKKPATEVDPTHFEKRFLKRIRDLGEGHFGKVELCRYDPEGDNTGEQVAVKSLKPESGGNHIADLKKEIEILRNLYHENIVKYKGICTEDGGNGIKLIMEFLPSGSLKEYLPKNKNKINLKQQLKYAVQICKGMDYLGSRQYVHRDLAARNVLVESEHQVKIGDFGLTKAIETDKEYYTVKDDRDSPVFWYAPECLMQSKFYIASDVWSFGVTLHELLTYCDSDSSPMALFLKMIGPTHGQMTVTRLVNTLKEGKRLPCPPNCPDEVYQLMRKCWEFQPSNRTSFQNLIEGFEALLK
# Method in brief: as §1
# [5] = biological target: T5, scanMAX Kinase assay panel (Homo sapiens, UniProt P20794); details: MAK; 1 uM; read-out: Percent Control (%)
# T5 construct: purchased DiscoverX
# T5 sequence (P20794 1-623): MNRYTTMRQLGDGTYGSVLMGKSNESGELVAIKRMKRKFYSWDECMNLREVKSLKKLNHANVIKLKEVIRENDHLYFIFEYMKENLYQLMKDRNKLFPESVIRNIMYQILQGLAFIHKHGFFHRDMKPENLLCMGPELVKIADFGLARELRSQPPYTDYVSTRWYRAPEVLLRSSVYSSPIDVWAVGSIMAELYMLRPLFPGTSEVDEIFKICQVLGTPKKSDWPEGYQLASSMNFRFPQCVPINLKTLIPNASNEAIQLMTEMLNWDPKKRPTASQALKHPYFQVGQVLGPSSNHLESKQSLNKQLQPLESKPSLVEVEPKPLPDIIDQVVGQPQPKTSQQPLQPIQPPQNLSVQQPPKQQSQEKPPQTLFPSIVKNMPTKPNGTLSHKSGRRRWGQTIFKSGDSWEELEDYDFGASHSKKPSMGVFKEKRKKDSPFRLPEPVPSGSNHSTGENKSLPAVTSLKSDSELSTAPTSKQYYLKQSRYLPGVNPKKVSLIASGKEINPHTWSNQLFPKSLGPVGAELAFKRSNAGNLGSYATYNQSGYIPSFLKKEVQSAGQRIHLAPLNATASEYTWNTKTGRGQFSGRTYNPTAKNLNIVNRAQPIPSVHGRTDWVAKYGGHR
# Method in brief: as §1
# [6] = biological target: T6, scanMAX Kinase assay panel (Homo sapiens, UniProt P07948); details: LYN; 1 uM; read-out: Percent Control (%)
# T6 construct: purchased DiscoverX
# T6 sequence (P07948 whole entry): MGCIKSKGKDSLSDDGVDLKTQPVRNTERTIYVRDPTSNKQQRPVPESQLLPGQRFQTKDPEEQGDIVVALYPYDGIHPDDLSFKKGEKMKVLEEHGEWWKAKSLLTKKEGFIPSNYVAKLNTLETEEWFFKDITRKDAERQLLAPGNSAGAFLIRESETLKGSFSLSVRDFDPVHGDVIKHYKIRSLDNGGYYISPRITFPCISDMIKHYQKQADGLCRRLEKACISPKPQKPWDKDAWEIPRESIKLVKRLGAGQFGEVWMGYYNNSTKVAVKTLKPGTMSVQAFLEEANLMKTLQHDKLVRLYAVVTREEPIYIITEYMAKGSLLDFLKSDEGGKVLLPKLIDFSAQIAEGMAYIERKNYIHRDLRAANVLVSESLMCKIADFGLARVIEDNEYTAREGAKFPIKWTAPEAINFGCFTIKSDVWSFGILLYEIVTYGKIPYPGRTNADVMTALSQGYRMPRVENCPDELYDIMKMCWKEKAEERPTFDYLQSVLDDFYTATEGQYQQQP
# Method in brief: as §1
SMILES,remaining binding at 1 µM [1] [%],remaining binding at 1 µM [2] [%],remaining binding at 1 µM [3] [%],remaining binding at 1 µM ([4]; JAK1 (JH1domain-catalytic)) [%],remaining binding at 1 µM ([4]; JAK1 (JH2domain-pseudokinase)) [%],remaining binding at 1 µM [5] [%],remaining binding at 1 µM [6] [%]
"Cc1ccc(C(=O)Nc2ccc(CN3CCN(C)CC3)c(C(F)(F)F)c2)cc1C#Cc1cnc2c(Nc3cnn(C)c3)cccn12 [Example 1, 4-methyl-3-((8-((1-methyl-1H-pyrazol-4-yl)amino)imidazo[1,2-a]pyridin-3-yl)ethynyl)-N-(4-((4-methylpiperazin-1-yl)methyl)-3-(trifluoromethyl)phenyl)benzamide]",71,73,98,17,70,10,0
"Cc1cn(-c2cc(NC(=O)c3ccc(C)c(C#Cc4cnc5c(Nc6cnn(C)c6)cccn45)c3)cc(C(F)(F)F)c2)cn1 [Example 12, 4-methyl-N-(3-(4-methyl-1H-imidazol-1-yl)-5-(trifluoromethyl)phenyl)-3-((8-((1-methyl-1H-pyrazol-4-yl)amino)imidazo[1,2-a]pyridin-3-yl)ethynyl)benzamide]",81,95,85,78,44,81,3
Cc1ccc(NC(=O)C2(C(=O)Nc3ccc(F)cc3)CC2)cc1C#Cc1cnc2c(Nc3cnn(C(C)C)c3)cccn12 [Example 78],100,100,100,92,100,100,84
